This note sets out measurements from ChEMBL document CHEMBL1926606, “Cannabinomimetic lipid from a marine cyanobacterium” (J Nat Prod, 2011).

In general, IC50 refers to the concentration that inhibits the measured activity by half. One may read the Ki as a measure of affinity in units of concentration, obtained from inhibition or displacement.

The target of one assay is Cannabinoid receptor 2 (Homo sapiens, UniProt P34972). Nature of the assay: Displacement of [3H]CP55940 from human recombinant CB2 receptor expressed in HEK293 cells after 90 mins. It is filed as cell-based.
Another assay addresses Cannabinoid receptor 1 (Homo sapiens, UniProt P21554). Nature of the assay: Displacement of [3H]CP55940 from human recombinant CB1 receptor expressed in HEK293 cells after 90 mins. Type of assay: cell-based. A general note: In a radioligand displacement assay an active substance lowers the binding of a labelled ligand.
Assay [1] relates to NCI-H460. Nature of the assay: Cytotoxicity against human H460 cells assessed as cell survival up to 20 ug/ml. Type of assay: functional, cell-based.
A further assay is filed under the species Homo sapiens. In words: Selectivity ratio of IC50 for human recombinant CB1 receptor to IC50 for human recombinant CB2 receptor.
For assay [2], the system named is NCI-H460. In words: Cytotoxicity against human H460 cells assessed as cell survival at 5 ug/ml. It is filed as functional. To be noted: read-out: Activity.
Assay [3] concerns NCI-H460. Nature of the assay: Cytotoxicity against human H460 cells assessed as cell survival at 50 ug/ml. It is filed as functional. To be noted: read-out: Activity.

Active and inactive are the calls of the source. The rule behind the calls is not given here.

Chain of Cannabinoid receptor 2 (P34972 whole entry): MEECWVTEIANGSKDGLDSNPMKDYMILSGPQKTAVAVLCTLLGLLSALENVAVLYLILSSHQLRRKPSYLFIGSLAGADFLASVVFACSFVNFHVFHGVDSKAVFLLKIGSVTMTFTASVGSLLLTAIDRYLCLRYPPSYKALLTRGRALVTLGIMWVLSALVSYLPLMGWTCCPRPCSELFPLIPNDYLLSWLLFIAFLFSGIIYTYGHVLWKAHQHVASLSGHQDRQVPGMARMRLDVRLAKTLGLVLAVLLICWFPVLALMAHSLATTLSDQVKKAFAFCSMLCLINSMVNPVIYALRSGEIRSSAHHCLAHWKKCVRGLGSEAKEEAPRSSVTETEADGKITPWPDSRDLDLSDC
Chain of Cannabinoid receptor 1 (P21554 whole entry): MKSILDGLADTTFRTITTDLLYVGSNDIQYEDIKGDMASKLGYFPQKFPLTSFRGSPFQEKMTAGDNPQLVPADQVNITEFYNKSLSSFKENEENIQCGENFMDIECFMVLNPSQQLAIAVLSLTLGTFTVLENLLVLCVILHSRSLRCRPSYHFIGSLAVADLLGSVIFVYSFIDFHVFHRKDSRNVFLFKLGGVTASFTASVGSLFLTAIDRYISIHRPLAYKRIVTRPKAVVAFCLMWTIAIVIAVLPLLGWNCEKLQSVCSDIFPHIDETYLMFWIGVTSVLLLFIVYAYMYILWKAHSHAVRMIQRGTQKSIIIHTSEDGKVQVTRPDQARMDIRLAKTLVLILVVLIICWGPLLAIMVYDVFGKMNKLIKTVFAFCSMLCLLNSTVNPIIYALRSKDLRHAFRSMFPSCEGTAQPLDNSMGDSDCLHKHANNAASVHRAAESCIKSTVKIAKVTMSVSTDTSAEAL

Take `C=C(CCCCCCCCCCCCC)CCCC(=O)O/C=C\COC(C)=O`: the IC50 was above 10 µM on Cannabinoid receptor 2 and above 10000 nM at Cannabinoid receptor 1. Further, the result in the assay on NCI-H460 [1] was inactive.

Take `CCCCC/C=C\C/C=C\C/C=C\C/C=C\CCCC(=O)N[C@@H](CO)C(=O)O`: the Ki at Cannabinoid receptor 2 is above 10 µM; on Cannabinoid receptor 1, above 10000 nM.

As for `CCCCCCCCCCCCC/C=C/CCC(=O)N(C)[C@H](CO)COC` [SERINOLAMIDE A], the Ratio IC50 in the assay filed under Homo sapiens was above 5. The IC50 was above 10 µM on Cannabinoid receptor 2 and 2300 nM on Cannabinoid receptor 1. For the same compound, the Ki at Cannabinoid receptor 1 was found to be 1300 nM. Further, the viability at 5 µg/mL in the assay on NCI-H460 [2] was 60%. Besides, the viability at 50 µg/mL with NCI-H460 [3] amounted to 0%.
